Test results as given in article PMC11947346, “Synthesis and preclinical evaluation of gastrin releasing peptide receptor antagonist [^18F]MeTz-PEG2-RM26 for positron emission tomography” (EJNMMI Radiopharmacy and Chemistry, 2025).

Legend:
[1] = biological target: T1, GRPR-expressing PC-3 cells (Homo sapiens, UniProt P30550); assay: In vitro binding to GRPR with and without preblocking of GRPR; assay type: cell-based; settings: 8–10 nM radioligand, 1 h at 37 °C, preblocking with 1 µM NOTA-PEG2-RM26 for 10 min at rt, n = 3, P < 0.0001
T1 construct: investigated using GRPR-expressing PC-3 cells; endogenous in cells; host or cells: PC-3 cells
Description: PC-3 cells (1 × 10^6 cells/well) were seeded on 6-well dishes one day before the experiment. On the day of the experiment, a set of wells was incubated with 1 µM/well of NOTA-PEG2-RM26 for 10 min at rt to block GRPR. After incubation, 8–10 nM (1.2–17.5 kBq) of [^18F]MeTz-PEG2-RM26 (8a) was added to the pretreated and non-treated wells, and the cells were incubated for 1 h at 37 °C. Thereafter, cells were detached using trypsin-EDTA (ethylenediaminetetraacetic acid), collected, and measured for their radioactivity content. The internalisation assay was done after 1 h of incubation as previously described (Varasteh et al. [2013b]).

[2] = Description: [^18F]MeTz-TCO-PEG2-RM26 (8a) (330 pmol, 1.2 MBq) was added and the tube was vortexed for 2 min. The tube was centrifuged for 20 s to separate the phases. Fractions of each phase were collected and the radioactivity content was measured.
[3] = system: GRPR-expressing PC-3 xenografts; assay: in vivo; settings: PC-3 xenografted Balb/c nu/nu mice, 2 h pi, blocked: co-injected with 5 nmol NOTA-PEG2-RM26, mean ± SD, n = 4
Description: (§1) [^18F]MeTz-PEG2-RM26 (8a) (30 kBq, 40 pmol) was evaluated in NMRI mice to assess the biodistribution in normal organs. A group of NMRI mice (n = 3) was additionally co-injected with 5 nmol of NOTA-PEG2-RM26 to block GRPR. Mice were euthanised at 30 min post-injection (pi) and the organs of interest were collected, weighed, and measured for their radioactivity content. Further, Balb/c nu/nu mice (4 mice in each group) were used to evaluate the uptake in normal organs and the GRPR-expressing tumour model (PC-3). In short, 7 × 10^6 freshly harvested PC-3 cells were suspended in 100 µl sterile PBS and were implanted subcutaneously at the right hind leg of each mouse. […] [^18F]MeTz-PEG2-RM26 (8a) (120 kBq, 48 pmol) was injected and mice were euthanised at predetermined time points of 1 and 2 h pi. An additional group was co-injected with 5 nmol of NOTA-PEG2-RM26 to block GRPR and was euthanized at 2 h pi. The collected organs were weighed and the radioactivity content was measured in each organ.

[4] = in vivo; settings: mouse, total radioactivity; for tissue uptake at 1 h / tissue uptake at 2 h / tissue to tissue ratio at 1 h / tissue to tissue ratio at 2 h: Balb/c nu/nu, 48 pmol; for tissue uptake dose at 0.5 h / tissue uptake at 0.5 h: NMRI; for tissue uptake at 0.5 h: NMRI mice, 30 min pi
Description: as §1

[5] = system: NMRI mice; assay: in vivo
Description: as §1

[6] = biological target: T2, GRPR (Homo sapiens, UniProt P30550); assay: In vitro competitive binding assay against [^125I]I-Tyr^4-BBN; IC50 determination; settings: PC-3 cells
T2 construct: investigated using GRPR-expressing PC-3 cells; endogenous in cells; host or cells: PC-3 cells
Description: The half maximal inhibitory concentration (IC50) was determined for F-MeTz-PEG2-RM2 (8b), Ga-loaded NOTA-PEG2-RM26 (Varasteh et al. [2013b], [2015]) conjugate was used as a comparator. […] Briefly, 10^5 cells were incubated the day before. […] After incubation, the cells were collected, and their activity was measured.

[7] = NMRI mice, 30 min pi, 40 pmol (30 kBq), non-blocked, mean ± SD, n = 3–4

T1 sequence (P30550 whole entry): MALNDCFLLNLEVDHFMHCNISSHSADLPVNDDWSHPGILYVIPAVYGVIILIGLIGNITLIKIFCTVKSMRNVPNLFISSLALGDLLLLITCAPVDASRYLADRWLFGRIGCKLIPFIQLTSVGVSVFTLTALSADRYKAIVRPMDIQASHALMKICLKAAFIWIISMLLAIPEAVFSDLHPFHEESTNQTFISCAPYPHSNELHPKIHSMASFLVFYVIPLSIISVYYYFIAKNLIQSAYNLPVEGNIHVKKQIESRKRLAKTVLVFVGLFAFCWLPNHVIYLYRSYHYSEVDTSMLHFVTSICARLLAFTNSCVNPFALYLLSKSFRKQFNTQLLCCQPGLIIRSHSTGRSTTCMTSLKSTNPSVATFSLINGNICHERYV
T2 sequence (P30550 whole entry): as above

## CC1=NNC(c2ccc(CNC(=O)c3ccc(F)nc3)cc2)=C2CCC[C@H](OC(=O)NCCOCCOCCC(=O)N[C@H](Cc3ccccc3)C(=O)N[C@@H](CCC(N)=O)C(=O)N[C@@H](Cc3c[nH]c4ccccc34)C(=O)N[C@@H](C)C(=O)N[C@H](C(=O)NCC(=O)N[C@@H](Cc3c[nH]cn3)C(=O)N[C@@H](CC(C)C)[C@@H](O)CC(=O)N[C@@H](CC(C)C)C(N)=O)C(C)C)CCC12 (stereo partly drawn) [8a]
[1]
  activity uptake upon target saturation (GRPR specificity): statistically significant reduction of activity uptake upon target saturation
[2]
  logP: 1.6 ± 0.2
[3]
  activity uptake in pancreas: 4 ± 1 %IA/g
[4]; blood
  tissue uptake at 1 h: 2.5 ± 0.4 %ID/g
  tissue uptake at 2 h: 1.8 ± 0.6 %ID/g
[4]; bone
  tissue uptake at 1 h: 0.8 ± 0.2 %ID/g
  tissue uptake at 2 h: 0.6 ± 0.04 %ID/g
[4]; kidneys
  tissue uptake at 1 h: 2.4 ± 0.1 %ID/g
  tissue uptake at 2 h: 1.9 ± 0.7 %ID/g
[4]; liver
  tissue uptake at 1 h: 12 ± 2 %ID/g
  tissue uptake at 2 h: 7 ± 2 %ID/g
[4]; lungs
  tissue uptake at 1 h: 1.3 ± 0.1 %ID/g
  tissue uptake at 2 h: 1.5 ± 0.8 %ID/g
[4]; muscle
  tissue uptake at 1 h: 0.33 ± 0.04 %ID/g
  tissue uptake at 2 h: 0.3 ± 0.1 %ID/g
[4]; pancreas
  tissue uptake at 1 h: 16 ± 1 %ID/g
  tissue uptake at 2 h: 17 ± 4 %ID/g
[4]; small intestine
  tissue uptake at 1 h: 6 ± 3 %ID/g
  tissue uptake at 2 h: 4 ± 3 %ID/g
[4]; spleen
  tissue uptake at 1 h: 0.9 ± 0.2 %ID/g
  tissue uptake at 2 h: 0.8 ± 0.6 %ID/g
[4]; tumour (PC-3 xenograft)
  tissue uptake at 1 h: 2.4 ± 0.1 %ID/g
  tissue uptake at 2 h: 2.7 ± 0.5 %ID/g
[4]; tumour / blood
  tissue to tissue ratio at 1 h: 0.97 ± 0.1
  tissue to tissue ratio at 2 h: 1.5 ± 0.2
[4]; tumour / bone
  tissue to tissue ratio at 1 h: 3.2 ± 0.5
  tissue to tissue ratio at 2 h: 5 ± 1
[4]; tumour / kidneys
  tissue to tissue ratio at 1 h: 0.99 ± 0.08
  tissue to tissue ratio at 2 h: 1.6 ± 0.6
[4]; tumour / liver
  tissue to tissue ratio at 1 h: 0.2 ± 0.02
  tissue to tissue ratio at 2 h: 0.4 ± 0.1
[4]; tumour / lungs
  tissue to tissue ratio at 1 h: 1.9 ± 0.1
  tissue to tissue ratio at 2 h: 2.2 ± 1
[4]; tumour / muscle
  tissue to tissue ratio at 1 h: 7.4 ± 0.7
  tissue to tissue ratio at 2 h: 12 ± 4
[4]; tumour / pancreas
  tissue to tissue ratio at 1 h: 0.15 ± 0.02
  tissue to tissue ratio at 2 h: 0.17 ± 0.05
[4]; tumour / small intestine
  tissue to tissue ratio at 1 h: 0.5 ± 0.2
  tissue to tissue ratio at 2 h: 0.7 ± 0.3
[4]; tumour / spleen
  tissue to tissue ratio at 1 h: 2.6 ± 0.5
  tissue to tissue ratio at 2 h: 4 ± 2
[4]; tumour
  tissue uptake at 1 h: 2.4 ± 0.1 %ID/g
[4]; GI tract with content (whole intestine), 40 pmol
  tissue uptake dose at 0.5 h: 38 ± 4 %ID
[4]; GI tract with content
  tissue uptake dose at 0.5 h: 32 ± 4 %ID
[4]; blood, 40 pmol, activity uptake in blood, 40 pmol (30 kBq), non-blocked, mean ± SD, n = 3–4
  tissue uptake at 0.5 h: 5 ± 1 %ID/g
[4]; blood, activity uptake in blood, 40 pmol, blocked: co-injected with 5 nmol NOTA-PEG2-RM26, mean ± SD, n = 3
  tissue uptake at 0.5 h: 4 ± 1 %ID/g
[4]; bone, 40 pmol, activity uptake in bone, 40 pmol (30 kBq), non-blocked, mean ± SD, n = 3–4
  tissue uptake at 0.5 h: 0.8 ± 0.1 %ID/g
[4]; bone, activity uptake in bone, 40 pmol, blocked: co-injected with 5 nmol NOTA-PEG2-RM26, mean ± SD, n = 3
  tissue uptake at 0.5 h: 0.7 ± 0.1 %ID/g
[4]; kidneys, activity uptake in kidneys, 40 pmol, blocked: co-injected with 5 nmol NOTA-PEG2-RM26, mean ± SD, n = 3
  tissue uptake at 0.5 h: 3.1 ± 0.6 %ID/g
[4]; liver, 40 pmol, activity uptake in liver, 40 pmol (30 kBq), non-blocked, mean ± SD, n = 3–4
  tissue uptake at 0.5 h: 12 ± 0.7 %ID/g
[4]; liver, activity uptake in liver, 40 pmol, blocked: co-injected with 5 nmol NOTA-PEG2-RM26, mean ± SD, n = 3
  tissue uptake at 0.5 h: 12 ± 2 %ID/g
[4]; rest of the carcass, 40 pmol
  tissue uptake dose at 0.5 h: 15 ± 2 %ID
[4]; rest of the carcass
  tissue uptake dose at 0.5 h: 16 ± 4 %ID
[4]; spleen, 40 pmol, activity uptake in spleen, 40 pmol (30 kBq), non-blocked, mean ± SD, n = 3–4
  tissue uptake at 0.5 h: 1.4 ± 0.1 %ID/g
[4]; spleen, activity uptake in spleen, 40 pmol, blocked: co-injected with 5 nmol NOTA-PEG2-RM26, mean ± SD, n = 3
  tissue uptake at 0.5 h: 0.9 ± 0.2 %ID/g
[4]; whole body, 40 pmol
  tissue uptake dose at 0.5 h: 84 ± 7 %ID
[5]; [7]
  activity uptake in bone: 0.8 ± 0.1 %IA/g
  activity uptake in liver: 12.0 ± 0.7 %IA/g
[5]; judged from bone uptake in the biological evaluation in mice
  in vivo defluorination (stability of the fluorine-carbon bond): no significant signs of in vivo defluorination

## CC1=NNC(c2ccc(CNC(=O)c3ccc(F)nc3)cc2)=C2CCC[C@H](OC(=O)NCCOCCOCCC(=O)N[C@H](Cc3ccccc3)C(=O)N[C@@H](CCC(N)=O)C(=O)N[C@@H](Cc3c[nH]c4ccccc34)C(=O)N[C@@H](C)C(=O)N[C@H](C(=O)NCC(=O)N[C@@H](Cc3c[nH]cn3)C(=O)N[C@@H](CC(C)C)[C@@H](O)CC(=O)N[C@@H](CC(C)C)C(N)=O)C(C)C)CCC12 (stereo partly drawn) [8b]
[6]
  decrease in binding affinity versus Ga-NOTA-PEG2-RM26 (IC50 ratio): 6.8 fold
